Results published in ChEMBL document CHEMBL5055690, “Introducing the Tellurophene-Appended BODIPY: PDT Agent with Mass Cytometry Tracking Capabilities” (ACS Med Chem Lett, 2021).
Active and inactive are the calls of the source. No cut-off for these calls is given here.

Columns and labels:
[1] = system: HeLa; assay: Dark toxicity in human HeLa cells assessed as reduction in cell viability measured after 3 hrs by MTT assay; assay type: cell-based
[2] = system: HeLa; assay: Induction of ROS generation in human HeLa cells at 25 nM preincubated for 3 hrs followed by irradiation with 23.6 milliwolt/cm2 of 525 nanometer laser light for 5 mins and measured by DCFDA staining based flourescence method; assay type: functional, cell-based; conditions: time 185.0 min
[3] = system: HeLa; assay: Induction of ROS generation in human HeLa cells at 25 nM measured after 3 hrs by DCFDA staining based flourescence assay; assay type: cell-based; conditions: 0.025 µM
[4] = system: HeLa; assay: Induction of apoptosis in human HeLa cells at 1.25 nM preincubated for 3 hrs followed by irradiation with 23.6 milliwolt/cm2 of 525 nanometer laser light for 5 mins and measured after 4 hrs by Annexin V/PI staining based flowcytometry assay; assay type: functional, cell-based; conditions: time 185.0 min
[5] = system: HeLa; assay: Induction of apoptosis in human HeLa spheroids assessed as cell death at 100 nM preincubated for 3 hrs followed by irradiation with 23.6 milliwolt/cm2 of 525 nanometer laser light for 5 mins and measured after overnight by plate reader assay; assay type: functional, cell-based; conditions: time 185.0 min
[6] = Drug uptake in human HeLa cells assessed as drug accumulation at 25 to 1000 nM incubated for 3 hrs under dark condition by […] mass cytometry; assay type: ADME, cell-based; conditions: 1 µM, dose 25-1000 nM
[7] = Induction of singlet oxygen generation in DMF solution assessed as singlet oxygen quantum yield irradiated with 490 nanometer LED light by DPBF-based assay; assay type: functional

F[B-]1(F)n2cccc2C(c2ccc(-c3ccc[te]3)cc2)=C2C=CC=[N+]21
IC50 [1]: 1.35 µM
Activity [2]: Active
Activity [3]: Non-Toxic
Activity [4]: Active
Activity [5]: Active
Drug uptake [6]: Active
Activity [7]: 0.26
